In patent US7214669B2, “Tetracycline derivatives and methods of use thereof” (Tetragenex Pharmaceuticals, Inc., priority 2001, dated 2007):
Where “and” joins values, the source holds several entries; their conditions need not be identical. Equal entries are not always repeated. Structures can show the parent of a compound that is named as a salt.

Columns and labels:
Human recombinant MMP9 = Human recombinant MMP9 (Homo sapiens, UniProt P14780); test: MMP9 (Gelatinase B) inhibition, 14C gelatin release; type: biochemical; details: 37° C., 16 hours; read-out: MMP-9 inhibitory activity, IC50
Human recombinant MMP14 = Human recombinant MMP14 (Homo sapiens, UniProt P50281); test: MMP14 (MTI-MMP) inhibition, 14C collagen release; type: biochemical; details: 35° C., 15 hours; read-out: MMP-14 inhibitory activity, IC50
MMP2 (Gelatinase A) = molecular target: T1, MMP2 (Gelatinase A) (Homo sapiens, UniProt P08253); test: MMP2 (Gelatinase A) inhibition, 14C gelatin release; type: biochemical; details: 37° C., 16 hours; read-out: MMP-2 inhibitory activity, IC50
T1 sequence (P08253 110-660): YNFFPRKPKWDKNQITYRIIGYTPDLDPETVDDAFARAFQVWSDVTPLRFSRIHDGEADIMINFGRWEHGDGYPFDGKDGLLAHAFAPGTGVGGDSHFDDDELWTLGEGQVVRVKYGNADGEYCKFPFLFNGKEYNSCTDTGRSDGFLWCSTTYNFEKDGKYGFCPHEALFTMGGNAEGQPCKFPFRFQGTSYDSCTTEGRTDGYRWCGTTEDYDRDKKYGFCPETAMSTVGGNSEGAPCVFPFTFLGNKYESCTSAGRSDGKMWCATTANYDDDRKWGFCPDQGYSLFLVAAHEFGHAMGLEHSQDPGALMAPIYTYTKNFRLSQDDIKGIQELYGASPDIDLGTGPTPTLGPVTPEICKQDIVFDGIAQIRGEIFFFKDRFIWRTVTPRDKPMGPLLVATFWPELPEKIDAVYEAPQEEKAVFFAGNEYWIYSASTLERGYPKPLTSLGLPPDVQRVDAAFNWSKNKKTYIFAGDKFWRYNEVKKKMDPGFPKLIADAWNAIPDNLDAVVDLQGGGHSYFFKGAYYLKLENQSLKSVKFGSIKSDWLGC

Human recombinant MMP1 = molecular target: T2, Human recombinant MMP1 (Homo sapiens, UniProt P03956); test: MMP1 (Collagenase-1) inhibition, 14C collagen release; type: biochemical; details: 35° C., 5 hours; read-out: MMP-1 inhibitory activity, IC50
T2 sequence (P03956 100-469): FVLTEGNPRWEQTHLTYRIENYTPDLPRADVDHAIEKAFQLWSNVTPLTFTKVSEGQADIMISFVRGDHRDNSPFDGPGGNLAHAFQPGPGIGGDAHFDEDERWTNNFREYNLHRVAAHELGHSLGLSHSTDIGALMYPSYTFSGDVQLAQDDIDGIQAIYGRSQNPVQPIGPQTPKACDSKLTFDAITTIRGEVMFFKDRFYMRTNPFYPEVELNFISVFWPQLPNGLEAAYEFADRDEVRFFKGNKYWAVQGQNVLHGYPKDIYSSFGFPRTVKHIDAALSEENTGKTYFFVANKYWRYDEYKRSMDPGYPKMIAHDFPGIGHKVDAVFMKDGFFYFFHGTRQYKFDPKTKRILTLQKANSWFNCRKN

Human recombinant MMP3 = Human recombinant MMP3 (Homo sapiens, UniProt P08254); test: MMP3 (Stromelysin 1) inhibition, 14C casein release; type: biochemical; details: 37° C., 16 hours; read-out: MMP-3 inhibitory activity, IC50
[1] = test system: RPMI-8226 human myeloma cancer cells; test: Membrane Invasion Culture System (MICS) chemo-invasion assay; type: cell-based; details: 24 hours, + = increased invasiveness
Excerpt: (§1) Another objective was to analyze the effects of specific, tetracycline derived compounds on the in-vitro chemo-invasive potential of: • C8161 human melanoma cells • MDA-MB-231 human breast cancer cells • PC3 human prostate cancer cells • RPM18226 human myeloma cancer cells • Ark human myeloma cancer cells • Arp-1 human myeloma cancer cells
(§2) The Membrane Invasion Culture System (MICS) in vitro chemo-invasion assay was chosen to measure changes in the invasive potential of specific human cancer cells in response to tetracycline derived compounds. Stock solutions of each compound were hydrated in water containing 2% DMSO and pH 10.0. Upon solubilization, HCl was added to the solution to establish a pH of 7.5–8.0. This solution was then wrapped in foil and kept at 4° C. during the 24 hours of assay. Fresh compound was prepared for each assay. The in vitro chemoinvasion analyses for tumor cell invasiveness are performed using the Membrane Invasion Culture System (MICS) as previously described.
(§3) The MICS system is a thermally treated plastic manifold system consisting of two matched sets of plates containing fourteen wells, 13 mm in diameter. Interposed between these plates was a polycarbonate filter containing 10 μm pores and coated with a defined matrix composed of human laminin/collagen IV/gelatin that formed a 35 μm thick barrier between the top and bottom sections of the wells in MICS. Prior to placing this barrier in place, the lower wells were filled with serum-free RPMI culture medium made 50% in conditioned medium obtained from 2-day-old cultures of human fibroblasts which had been cleared of cells and cellular debris by either centrifugation, or filtering through a 0.45 μm sterile filter. The barrier was then placed on the lower wells and fresh serum-free medium added to the upper wells after assembly of the system. Fifty thousand tumor cells were then added to the wells either in the presence of the compound, or the DMSO vehicle (the controls). Of the 12 assay wells on each manifold, 3 randomized wells acted as controls, 3 wells received 1 μg/ml of compound, 3 received 10 μg/ml and 3 received 25 μg/ml. After 24 hours, cells and media were removed from the lower wells and replaced by phosphate buffered saline plus 2 mM EDTA. This solution was used to remove all cells from the lower well, and this wash was added to the recovered cells plus medium from the same well. These samples were then collected onto a polylysine containing polycarbonate membrane containing 3 μm pores using a Dot-Blot manifold system. These collection filters were then fixed in methanol, and stained using Wright's stain (Leukostat staining kit) in situ. The filters were then mounted on microscope slides with microscope immersion oil (which reduced the light refraction from the pores) and 5 microscopic fields were counted to calculate the number of cells which invaded through the membrane over the 24 hour period. These numbers were then statistically analyzed as discussed below.

[2] = test system: MDA-MB-231 human breast cancer cells; test: as above; type: cell-based; details: 24 hours, + = increased invasiveness
Excerpt: as §1, §2, §3

[3] = test system: PC-3 ML human prostate cancer cells; test: as above; type: cell-based; details: 24 hours, + = increased invasiveness
Excerpt: as §1, §2, §3

[4] = test system: C8161 human melanoma cells; test: as above; type: cell-based; details: 24 hours, + = increased invasiveness
Excerpt: as §1, §2, §3

Chain of Human recombinant MMP9 (P14780 94-707): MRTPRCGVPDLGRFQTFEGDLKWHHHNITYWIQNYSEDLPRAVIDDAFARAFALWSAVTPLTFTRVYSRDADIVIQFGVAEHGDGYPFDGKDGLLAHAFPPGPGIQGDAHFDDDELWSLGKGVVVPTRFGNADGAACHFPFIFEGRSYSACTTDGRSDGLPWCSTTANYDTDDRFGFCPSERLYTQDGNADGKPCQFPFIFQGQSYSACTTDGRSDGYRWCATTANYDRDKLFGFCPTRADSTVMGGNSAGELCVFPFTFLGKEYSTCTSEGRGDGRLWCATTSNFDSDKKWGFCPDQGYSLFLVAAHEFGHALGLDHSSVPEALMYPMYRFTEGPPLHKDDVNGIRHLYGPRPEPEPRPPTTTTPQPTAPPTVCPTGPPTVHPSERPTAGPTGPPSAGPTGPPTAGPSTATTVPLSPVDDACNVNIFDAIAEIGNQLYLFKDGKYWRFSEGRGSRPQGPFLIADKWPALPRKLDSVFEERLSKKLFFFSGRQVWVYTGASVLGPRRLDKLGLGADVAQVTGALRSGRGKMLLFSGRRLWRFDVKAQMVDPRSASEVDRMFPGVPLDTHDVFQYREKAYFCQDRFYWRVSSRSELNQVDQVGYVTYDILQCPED
Chain of Human recombinant MMP3 (P08254 100-477): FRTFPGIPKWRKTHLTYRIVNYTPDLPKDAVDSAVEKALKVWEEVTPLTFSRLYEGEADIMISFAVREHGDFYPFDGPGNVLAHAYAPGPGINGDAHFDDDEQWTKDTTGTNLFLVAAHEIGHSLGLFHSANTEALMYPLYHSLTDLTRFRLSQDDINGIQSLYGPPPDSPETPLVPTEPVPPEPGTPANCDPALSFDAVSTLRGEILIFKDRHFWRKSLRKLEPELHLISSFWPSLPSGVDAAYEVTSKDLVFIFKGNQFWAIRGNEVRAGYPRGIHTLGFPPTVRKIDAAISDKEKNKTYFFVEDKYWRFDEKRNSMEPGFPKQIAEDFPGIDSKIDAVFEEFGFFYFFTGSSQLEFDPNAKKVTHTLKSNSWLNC

| Compound | IC50 (Human recombinant MMP9) [µM] | IC50 (Human recombinant MMP14) [µM] | IC50 (MMP2 (Gelatinase A)) [µM] | IC50 (Human recombinant MMP1) [µM] | IC50 (Human recombinant MMP3) [µM] | percent inhibition, MDA-MB-231 (Breast) ([2]; 1 ug/mL) | percent inhibition, MDA-MB-231 (Breast) ([2]; 10 ug/mL) | percent inhibition, MDA-MB-231 (Breast) ([2]; 25 ug/mL) | percent inhibition, C8161 (Melanoma) ([4]; 1 ug/mL) | percent inhibition, C8161 (Melanoma) ([4]; 10 ug/mL) | percent inhibition, C8161 (Melanoma) ([4]; 25 ug/mL) | also measured |
| --- | --- | --- | --- | --- | --- | --- | --- | --- | --- | --- | --- | --- |
| CC1c2c(N)cc([N+](=O)[O-])c(O)c2C(=O)C2=C(O)C3(O)C(=O)C(C(N)=O)=C(O)C(N(C)C)C3C(O)C21 (stereo not shown) [Compound 14, 7-Amino-6-deoxy-5-hydroxy-9-nitrotetracycline H2SO4] | – | 386 | – | 279 | > 1000 | – | – | – | – | – | – | – |
| CCCCN(CCCC)c1ccc(O)c2c1C(C)C1C(=C(O)C3(O)C(=O)C(C(N)=O)=C(O)C(N(C)C)C3C1O)C2=O (stereo not shown) [Compound 17, 7-Di-n-Butylamino-6-deoxy-5-hydroxytetracycline H2SO4] | 110 | 98 | > 1000 | 122 | 350 | – | – | – | – | – | – | – |
| CCCCCCN(CCCCCC)c1ccc(O)c2c1C(C)C1C(=C(O)C3(O)C(=O)C(C(N)=O)=C(O)C(N(C)C)C3C1O)C2=O (stereo not shown) [Compound 18, 7-Di-n-Hexylamino-6-deoxy-5-hydroxytetracycline H2SO4] | 131 | 102 | 233 | 123 | 335 | – | – | – | – | – | – | – |
| CC(=O)Nc1cc(N=[N+]=[N-])c(O)c2c1C(C)C1C(=C(O)C3(O)C(=O)C(C(N)=O)=C(O)C(N(C)C)C3C1O)C2=O (stereo not shown) [Compound 42, 7-Acetylamino-9-azido-6-deoxy-5-hydroxy-tetracycline] | 405 | 428 | 606 | – | 1560 | – | – | – | – | – | – | – |
| CC1c2c(N)cc(C(C)(C)C)c(O)c2C(=O)C2=C(O)C3(O)C(=O)C(C(N)=O)=C(O)C(N(C)C)C3C(O)C21 (stereo not shown) [Compound 44, 7-Amino-9-tertbutyl-6-deoxy-5-hydroxytetracycline H2SO4] | 591 | – | 1470 | 1440 | 224 | – | – | – | – | – | – | – |
| CC1c2ccc(-c3ccc(F)cc3)c(O)c2C(=O)C2=C(O)C3(O)C(=O)C(C(N)=O)=C(O)C(N(C)C)C3C(O)C21 (stereo not shown) [Compound 51, 9-(4-fluorophenyl)-6-deoxy-5-hydroxytetracycline] | – | – | – | – | – | +15^B percent | +18% | 25^B percent | +9% | +31^B percent | +122^B percent | percent inhibition, RPMI-8226 (Multiple Myeloma) ([1]; 1 ug/mL): 14%; percent inhibition, RPMI-8226 (Multiple Myeloma) ([1]; 10 ug/mL): +26^B percent; percent inhibition, RPMI-8226 (Multiple Myeloma) ([1]; 25 ug/mL): +2%; percent inhibition, PC-3 ML (Prostrate) ([3]; 1 ug/mL): +4%; percent inhibition, PC-3 ML (Prostrate) ([3]; 10 ug/mL): +13%; percent inhibition, PC-3 ML (Prostrate) ([3]; 25 ug/mL): 4% |
| CN(C)C1C(O)=C(C(N)=O)C(=O)C2(O)C(O)=C3C(=O)c4c(O)ccc(Cl)c4C(C)(O)C3CC12 (stereo not drawn) [Compound 52, 4-Epi-7-Chlorotetracycline hydrochloride] | – | – | – | – | – | 5% | 12% | 52^B percent | 5% | 15% | 30% | percent inhibition, RPMI-8226 (Multiple Myeloma) ([1]; 10 ug/mL, hydrochloride): 26^B percent and 33^B percent; percent inhibition, RPMI-8226 (Multiple Myeloma) ([1]; 25 ug/mL, hydrochloride): 68^B percent and 46^B percent; percent inhibition, PC-3 ML (Prostrate) ([3]; 1 ug/mL, hydrochloride): 52^B percent and 31^B percent; percent inhibition, PC-3 ML (Prostrate) ([3]; 10 ug/mL, hydrochloride): 68^B percent and 48^B percent; percent inhibition, PC-3 ML (Prostrate) ([3]; 25 ug/mL, hydrochloride): 70^B percent and 63^B percent |
| CN(C)[C@@H]1C(=O)C(C(N)=O)=C(O)[C@@]2(O)C(=O)C3=C(O)c4c(O)cccc4C[C@H]3C[C@@H]12.Cl [Compound 53, 6-Demethyl-6-deoxytetracycline HCl] | – | – | – | – | – | 9% | 49^B percent | 83^B percent | +40^B percent | +158^B percent | 83^B percent | percent inhibition, RPMI-8226 (Multiple Myeloma) ([1]; 1 ug/mL): +95^B percent; percent inhibition, RPMI-8226 (Multiple Myeloma) ([1]; 10 ug/mL): 18%; percent inhibition, RPMI-8226 (Multiple Myeloma) ([1]; 25 ug/mL): 84^B percent; percent inhibition, PC-3 ML (Prostrate) ([3]; 1 ug/mL): 29^B percent; percent inhibition, PC-3 ML (Prostrate) ([3]; 10 ug/mL): 21%; percent inhibition, PC-3 ML (Prostrate) ([3]; 25 ug/mL): 45^B percent |

The next lines start with results.

| IC50 (Human recombinant MMP9) [µM] | IC50 (Human recombinant MMP14) [µM] | IC50 (MMP2 (Gelatinase A)) [µM] | IC50 (Human recombinant MMP1) [µM] | IC50 (Human recombinant MMP3) [µM] | Compound | percent inhibition, MDA-MB-231 (Breast) ([2]; 1 ug/mL) | percent inhibition, MDA-MB-231 (Breast) ([2]; 10 ug/mL) | percent inhibition, MDA-MB-231 (Breast) ([2]; 25 ug/mL) | percent inhibition, C8161 (Melanoma) ([4]; 1 ug/mL) | percent inhibition, C8161 (Melanoma) ([4]; 10 ug/mL) | percent inhibition, C8161 (Melanoma) ([4]; 25 ug/mL) | also measured |
| --- | --- | --- | --- | --- | --- | --- | --- | --- | --- | --- | --- | --- |
| 142 | 94 | 263 | 295 | 205 | 7-Cyclobutylmethylamino-6-deoxy-5-hydroxytetracycline H2SO4 [Compound 33] | – | – | – | – | – | – | – |
| – | 29 | 362 | 560 | 91 | CC1c2c([N+](=O)[O-])cc(C(C)(C)C)c(O)c2C(=O)C2=C(O)C3(O)C(=O)C(C(N)=O)=C(O)CC3C(O)C21 (stereo not shown) [Compound 40, 7-Nitro-9-tertbutyl-4-dedimethylamino-6-deoxy-5-hydroxy-tetracycline H2SO4] | 9% | 15% | 20^B percent | +1% | +5% | +4% | percent inhibition, RPMI-8226 (Multiple Myeloma) ([1]; 1 ug/mL): 16%; percent inhibition, RPMI-8226 (Multiple Myeloma) ([1]; 10 ug/mL): 11%; percent inhibition, RPMI-8226 (Multiple Myeloma) ([1]; 25 ug/mL): 9%; percent inhibition, PC-3 ML (Prostrate) ([3]; 1 ug/mL): +1%; percent inhibition, PC-3 ML (Prostrate) ([3]; 10 ug/mL): +7%; percent inhibition, PC-3 ML (Prostrate) ([3]; 25 ug/mL): +4% |
| 319 | – | 2480 | 600 | 174 | CC1c2c([N+]#N)cc(C(C)(C)C)c(O)c2C(=O)C2=C(O)C3(O)C(=O)C(C(N)=O)=C(O)C(N(C)C)C3C(O)C21 (stereo not shown) [Compound 43, 9-tertbutyl-6-deoxy-5-hydroxytetracycline-7-diazonium H2SO4] | – | – | – | – | – | – | – |
| 6630 | – | 2450 | 384 | 194 | CC1c2c(N=[N+]=[N-])cc(C(C)(C)C)c(O)c2C(=O)C2=C(O)C3(O)C(=O)C(C(N)=O)=C(O)C(N(C)C)C3C(O)C21 (stereo not shown) [Compound 45, 7-Azido-9-tertbutyl-6-deoxy-5-hydroxytetracycline H2SO4] | – | – | – | – | – | – | – |
